Like-named read-outs stand apart in the source and are kept apart here.
System: test plant species
Test: Post-emergent herbicidal activity test (greenhouse, foliar spray, visual growth reduction)
Assay type: in vivo
Conditions: post-emergence, 336 h, 140 g ai/ha
In short: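 Visual scoring 14 d after treatment (0 = no injury, 100 = complete control) against nontreated and solvent-blank plants gave percent growth reduction. Foliar application used a track sprayer delivering 187 L/ha to seedlings at first or second true leaf stage, grown at 23–29 °C day, ~15 h photoperiod.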

[1] = ALOMY: blackgrass (Alopecurus myosuroides), 14 days after application, read-out: Visual Growth Reduction (%) 14 Days After Application, ALOMY
[2] = AMARE: redroot pigweed (Amaranthus retroflexus), 14 days after application, read-out: Visual Growth Reduction (%) 14 Days After Application, AMARE
[3] = AVEFA: wild oat (Avena fatua), 14 days after application, read-out: Visual Growth Reduction (%) 14 Days After Application, AVEFA
[4] = CHEAL: lambsquarters (Chenopodium album), 14 days after application, read-out: Visual Growth Reduction (%) 14 Days After Application, CHEAL
[5] = CIRAR: canada thistle (Cirsium arvense), 14 days after application, read-out: Visual Growth Reduction (%) 14 Days After Application, CIRAR
[6] = CYPES: yellow nutsedge (Cyperus esculentus), 14 days after application, read-out: Visual Growth Reduction (%) 14 Days After Application, CYPES
[7] = DIGSA: crabgrass (Digitaria sanguinalis), 14 days after application, read-out: Visual Growth Reduction (%) 14 Days After Application, DIGSA
[8] = ECHCG: barnyardgrass (Echinochloa crus-galli), 14 days after application, read-out: Visual Growth Reduction (%) 14 Days After Application, ECHCG
[9] = IPOHE: ivy-leaf morning glory (Ipomoea hederacea), 14 days after application, read-out: Visual Growth Reduction (%) 14 Days After Application, IPOHE
[10] = KCHSC: kochia (Bassia scoparia), 14 days after application, read-out: Visual Growth Reduction (%) 14 Days After Application, KCHSC
[11] = ORYSA: rice (Oryza sativa), 14 days after application, read-out: Visual Growth Reduction (%) 14 Days After Application, ORYSA
[12] = SETFA: giant foxtail (Setaria faberi), 14 days after application, read-out: Visual Growth Reduction (%) 14 Days After Application, SETFA
[13] = SORVU: grain sorghum (Sorghum vulgare), 14 days after application, read-out: Visual Growth Reduction (%) 14 Days After Application, SORVU
[14] = STEME: common chickweed (Stellaria media), 14 days after application, read-out: Visual Growth Reduction (%) 14 Days After Application, STEME
[15] = TRZAS: wheat, spring (Triticum aestivum), 14 days after application, read-out: Visual Growth Reduction (%) 14 Days After Application, TRZAS
[16] = blackgrass (Alopecurus myosuroides), 14 Days After Application, read-out: Visual Growth Reduction (%) ALOMY
[17] = crabgrass (Digitaria sanguinalis), 14 Days After Application, read-out: Visual Growth Reduction (%) DIGSA
[18] = lambsquarters (Chenopodium album), 14 Days After Application, read-out: Visual Growth Reduction (%) CHEAL
[19] = redroot pigweed (Amaranthus retroflexus), 14 Days After Application, read-out: Visual Growth Reduction (%) AMARE
[20] = wild oat (Avena fatua), 14 Days After Application, read-out: Visual Growth Reduction (%) AVEFA
[21] = yellow nutsedge (Cyperus esculentus), 14 Days After Application, read-out: Visual Growth Reduction (%) CYPES

COC(=O)c1nc(-c2cc3c(cc2F)OC(F)(F)O3)c(F)cc1Cl [F173, Methyl 3-chloro-5-fluoro-6-(2,2,6-trifluorobenzo[d] [1,3]dioxol-5-yl)picolinate]
pest or weed control at 140 g/ha [1]: 60 to 74%
pest or weed control at 140 g/ha [2]: 95 to 100%
pest or weed control at 140 g/ha [3]: 75 to 84%
pest or weed control at 140 g/ha [4]: 95 to 100%
pest or weed control at 140 g/ha [5]: 85 to 94%
pest or weed control at 140 g/ha [6]: 75 to 84%
pest or weed control at 140 g/ha [7]: 95 to 100%
pest or weed control at 140 g/ha [8]: 85 to 94%
pest or weed control at 140 g/ha [9]: 95 to 100%
pest or weed control at 140 g/ha [10]: 60 to 74%
pest or weed control at 140 g/ha [11]: 0 to 29%
pest or weed control at 140 g/ha [12]: 75 to 84%
pest or weed control at 140 g/ha [13]: 95 to 100%
pest or weed control at 140 g/ha [14]: 0 to 29%
pest or weed control at 140 g/ha [15]: 60 to 74%

O=C(O)c1nc(-c2ccc(SC(F)(F)F)cc2)c(Cl)cc1Cl [F89, 3,5-Dichloro-6-(4-((trifluoromethyl)thio)phenyl) picolinic acid]
pest or weed control at 140 g/ha [1]: 0 to 29%
pest or weed control at 140 g/ha [2]: 0 to 29%
pest or weed control at 140 g/ha [3]: 0 to 29%
pest or weed control at 140 g/ha [4]: 45 to 59%
pest or weed control at 140 g/ha [5]: 0 to 29%
pest or weed control at 140 g/ha [6]: 0 to 29%
pest or weed control at 140 g/ha [7]: 30 to 44%
pest or weed control at 140 g/ha [8]: 0 to 29%
pest or weed control at 140 g/ha [9]: 0 to 29%
pest or weed control at 140 g/ha [10]: 0 to 29%
pest or weed control at 140 g/ha [11]: 0 to 29%
pest or weed control at 140 g/ha [12]: 0 to 29%
pest or weed control at 140 g/ha [13]: 0 to 29%
pest or weed control at 140 g/ha [14]: 0 to 29%
pest or weed control at 140 g/ha [15]: 0 to 29%

COC(=O)c1nc(-c2c(Cl)cc(C(F)(F)F)cc2Cl)ccc1Cl [F88, Methyl 3-chloro-6-(2,6-dichloro-4-(trifluoromethyl)phenyl)picolinate]
pest or weed control at 140 g/ha [1]: 60 to 74%
pest or weed control at 140 g/ha [2]: 95 to 100%
pest or weed control at 140 g/ha [3]: 0 to 29%
pest or weed control at 140 g/ha [4]: 95 to 100%
pest or weed control at 140 g/ha [5]: 85 to 94%
pest or weed control at 140 g/ha [6]: 0 to 29%
pest or weed control at 140 g/ha [7]: 85 to 94%
pest or weed control at 140 g/ha [8]: 75 to 84%
pest or weed control at 140 g/ha [9]: 75 to 84%
pest or weed control at 140 g/ha [10]: 45 to 59%
pest or weed control at 140 g/ha [11]: 0 to 29%
pest or weed control at 140 g/ha [12]: 85 to 94%
pest or weed control at 140 g/ha [13]: 85 to 94%
pest or weed control at 140 g/ha [14]: 0 to 29%
pest or weed control at 140 g/ha [15]: 30 to 44%

COC(=O)c1nc(-c2cc(Br)c(C(F)(F)F)cc2Cl)c(F)cc1Cl [F152, Methyl 6-(5-bromo-2-chloro-4-(trifluoromethyl)phenyl)-3-chloro-5-fluoropicolinate]
pest or weed control at 140 g/ha [1]: 0 to 29%
pest or weed control at 140 g/ha [2]: 95 to 100%
pest or weed control at 140 g/ha [3]: 0 to 29%
pest or weed control at 140 g/ha [4]: 95 to 100%
pest or weed control at 140 g/ha [5]: 45 to 59%
pest or weed control at 140 g/ha [6]: 0 to 29%
pest or weed control at 140 g/ha [7]: 60 to 74%
pest or weed control at 140 g/ha [8]: 0 to 29%
pest or weed control at 140 g/ha [9]: 95 to 100%
pest or weed control at 140 g/ha [10]: 85 to 94%
pest or weed control at 140 g/ha [11]: 0 to 29%
pest or weed control at 140 g/ha [12]: 0 to 29%
pest or weed control at 140 g/ha [13]: 95 to 100%
pest or weed control at 140 g/ha [14]: 0 to 29%
pest or weed control at 140 g/ha [15]: 0 to 29%

COC(=O)c1nc(-c2ccc(C(F)F)cc2Cl)ccc1Cl [F19, methyl 3-chloro-6-(2-chloro-4-(difluoromethyl)phenyl)picolinate]
pest or weed control at 140 g/ha [1]: 0 to 29%
pest or weed control at 140 g/ha [2]: 95 to 100%
pest or weed control at 140 g/ha [3]: 0 to 29%
pest or weed control at 140 g/ha [4]: 95 to 100%
pest or weed control at 140 g/ha [5]: 95 to 100%
pest or weed control at 140 g/ha [6]: 30 to 44%
pest or weed control at 140 g/ha [7]: 0 to 29%
pest or weed control at 140 g/ha (barnyardgrass (Echinochloa crus-galli), 14 Days After Application, read-out: Visual Growth Reduction (%) ECHCG): 0 to 29%
pest or weed control at 140 g/ha (common chickweed (Stellaria media), 14 Days After Application, read-out: Visual Growth Reduction (%) STEME): 0 to 29%
pest or weed control at 140 g/ha (giant foxtail (Setaria faberi), 14 Days After Application, read-out: Visual Growth Reduction (%) SETFA): 0 to 29%
pest or weed control at 140 g/ha (ivy-leaf morning glory (Ipomoea hederacea), 14 Days After Application, read-out: Visual Growth Reduction (%) IPOHE): 95 to 100%
pest or weed control at 140 g/ha (johnsongrass (Sorghum vulgare), 14 Days After Application, read-out: Visual Growth Reduction (%) SORVU): 30 to 44%
pest or weed control at 140 g/ha (kochia (Bassia scoparia), 14 Days After Application, read-out: Visual Growth Reduction (%) KCHSC): 85 to 94%
pest or weed control at 140 g/ha (rice (Oryza sativa), 14 Days After Application, read-out: Visual Growth Reduction (%) ORYSA): 0 to 29%
pest or weed control at 140 g/ha (wheat, spring (Triticum aestivum), 14 Days After Application, read-out: Visual Growth Reduction (%) TRZAS): 0 to 29%

C=Cc1cc(-c2nc(C(=O)O)c(Cl)cc2F)c(Cl)cc1C(F)(F)F [F350, 3-Chloro-6-(2-chloro-4-(trifluoromethyl)-5-vinylphenyl)-5-fluoropicolinic acid]
pest or weed control at 140 g/ha [8]: 0 to 29%
pest or weed control at 140 g/ha [9]: 85 to 94%
pest or weed control at 140 g/ha [10]: 85 to 94%
pest or weed control at 140 g/ha [11]: 0 to 29%
pest or weed control at 140 g/ha [12]: 0 to 29%
pest or weed control at 140 g/ha [13]: 0 to 29%
pest or weed control at 140 g/ha [14]: 0 to 29%
pest or weed control at 140 g/ha [15]: 0 to 29%
pest or weed control at 140 g/ha [16]: 0 to 29%
pest or weed control at 140 g/ha [17]: 30 to 44%
pest or weed control at 140 g/ha [18]: 60 to 74%
pest or weed control at 140 g/ha [19]: 30 to 44%
pest or weed control at 140 g/ha [20]: 0 to 29%
pest or weed control at 140 g/ha [21]: 0 to 29%

COC(=O)c1nc(-c2cc(OC)c(Cl)cc2Cl)ccc1Cl [F47, Methyl 3-chloro-6-(2,4-dichloro-5-methoxyphenyl) picolinate]
pest or weed control at 140 g/ha [1]: 0 to 29%
pest or weed control at 140 g/ha [2]: 0 to 29%
pest or weed control at 140 g/ha [3]: 0 to 29%
pest or weed control at 140 g/ha [4]: 0 to 29%
pest or weed control at 140 g/ha [5]: 0 to 29%
pest or weed control at 140 g/ha [6]: 0 to 29%
pest or weed control at 140 g/ha [7]: 0 to 29%
pest or weed control at 140 g/ha [8]: 0 to 29%
pest or weed control at 140 g/ha [10]: 0 to 29%
pest or weed control at 140 g/ha [11]: 0 to 29%
pest or weed control at 140 g/ha [12]: 0 to 29%
pest or weed control at 140 g/ha [13]: 0 to 29%
pest or weed control at 140 g/ha [14]: 0 to 29%
pest or weed control at 140 g/ha [15]: 0 to 29%

COC(=O)c1nc(-c2ccc(OC(F)(F)F)cc2Cl)ccc1Cl [F58, Methyl 3-chloro-6-(2-chloro-4-(trifluoromethoxy)phenyl)picolinate]
pest or weed control at 140 g/ha [1]: 30 to 44%
pest or weed control at 140 g/ha [2]: 95 to 100%
pest or weed control at 140 g/ha [3]: 45 to 59%
pest or weed control at 140 g/ha [4]: 60 to 74%
pest or weed control at 140 g/ha [5]: 95 to 100%
pest or weed control at 140 g/ha [6]: 0 to 29%
pest or weed control at 140 g/ha [7]: 85 to 94%
pest or weed control at 140 g/ha [8]: 0 to 29%
pest or weed control at 140 g/ha [9]: 95 to 100%
pest or weed control at 140 g/ha [10]: 30 to 44%
pest or weed control at 140 g/ha [11]: 0 to 29%
pest or weed control at 140 g/ha [12]: 75 to 84%
pest or weed control at 140 g/ha [13]: 85 to 94%

COC(=O)c1nc(-c2ccc(C(F)(F)F)c(C)c2)ccc1Cl [F308, Methyl 3-chloro-6-(3-methyl-4-(trifluoromethyl)phenyl)picolinate]
pest or weed control at 140 g/ha [8]: 0 to 29%
pest or weed control at 140 g/ha [9]: 0 to 29%
pest or weed control at 140 g/ha [10]: 0 to 29%
pest or weed control at 140 g/ha [11]: 0 to 29%
pest or weed control at 140 g/ha [12]: 0 to 29%
pest or weed control at 140 g/ha [13]: 0 to 29%
pest or weed control at 140 g/ha [14]: 0 to 29%
pest or weed control at 140 g/ha [15]: 0 to 29%
pest or weed control at 140 g/ha [16]: 0 to 29%
pest or weed control at 140 g/ha (canada thistle (Cirsium arvense), 14 Days After Application, read-out: Visual Growth Reduction (%) CIRAR): 0 to 29%
pest or weed control at 140 g/ha [17]: 0 to 29%
pest or weed control at 140 g/ha [18]: 0 to 29%
pest or weed control at 140 g/ha [19]: 45 to 59%
pest or weed control at 140 g/ha [20]: 0 to 29%
pest or weed control at 140 g/ha [21]: 0 to 29%
